{"source": "paper PMC4444023", "about": "(PLoS ONE, 2015)", "key": {"nSMase": {"target": "nSMase", "parameters": "method as in PMID 21615386, PMID 17049336", "details": "cited from earlier work; for pIC50: Enzyme source: Rat brain"}, "human nSMase2 [1]": {"target": "T1, human nSMase2 (Homo sapiens, UniProt Q9NY59)", "T1 sequence (Q9NY59 1-655)": "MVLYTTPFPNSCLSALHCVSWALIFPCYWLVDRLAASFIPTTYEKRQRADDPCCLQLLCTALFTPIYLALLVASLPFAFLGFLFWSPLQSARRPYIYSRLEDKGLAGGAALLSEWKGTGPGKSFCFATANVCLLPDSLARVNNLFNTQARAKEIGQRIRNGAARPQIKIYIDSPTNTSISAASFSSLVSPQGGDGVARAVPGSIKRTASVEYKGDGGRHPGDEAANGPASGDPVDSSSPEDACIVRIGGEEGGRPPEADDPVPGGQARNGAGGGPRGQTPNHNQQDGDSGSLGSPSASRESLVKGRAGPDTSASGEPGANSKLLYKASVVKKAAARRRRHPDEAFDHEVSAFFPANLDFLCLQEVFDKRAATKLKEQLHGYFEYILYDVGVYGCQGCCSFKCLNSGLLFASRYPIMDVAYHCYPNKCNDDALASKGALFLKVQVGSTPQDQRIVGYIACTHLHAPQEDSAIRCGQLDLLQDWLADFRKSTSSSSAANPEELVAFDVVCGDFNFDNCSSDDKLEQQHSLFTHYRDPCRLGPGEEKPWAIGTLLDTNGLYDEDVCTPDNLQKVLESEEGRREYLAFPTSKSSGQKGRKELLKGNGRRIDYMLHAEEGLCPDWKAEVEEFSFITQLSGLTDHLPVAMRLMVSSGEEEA", "test": "Fluorescence (Amplex red coupled) nSMase2 activity assay", "format": "biochemical", "parameters": "Full length human nSMase2 cDNA with a C-terminal Flag tag; crude cell lysate used as enzyme", "description": "The production of the latter was coupled to a dephosphorylation reaction catalyzed by alkaline phosphatase (4 U/ml) to produce choline, followed by oxidation of choline by choline oxidase (0.1 U/ml) to produce betaine and H2O2, which in the presence of horseradish peroxidase (HRP, 1U/ml) and 50 μM Amplex red, generates the fluorescent molecule resorufin (Life Technologies). Substrate stock solution was prepared in 2% Triton X-100, vortexed and sonicated for 30 min. Reactions were carried out for 1 h at 37°C in 100 mM Tris-HCl pH 7.4, 10 mM MgCl2, 0.2% Triton X-100 and the generation of the fluorescent product was monitored by measuring relative florescence units (RFU) with excitation at 530 nm and emission at 590 nm (Fig 1). This assay was optimized for 384-well format (50 μl total volume per well) based on linearity of the enzymatic activity with respect to time, as well as substrate and enzyme concentrations. […] This fluorescence assay was used for compound screening and IC50 value determinations, based on duplicate eight-point dose response curves."}, "human nSMase2 [2]": {"target": "T1, human nSMase2", "test": "14C-SM confirmatory direct activity assay", "format": "biochemical", "parameters": "Full length human nSMase2 cDNA with a C-terminal Flag tag; host or cells: HEK293, stably transfected; crude cell lysate used as enzyme", "details": "for human nSMase2 inhibitory activity of analog vs cambinol: SAR; for pIC50: [14C]-SM direct activity assay, human recombinant enzyme", "description": "This assay was dependent on the direct hydrolysis of ^14C-labeled SM (^14C N-methyl groups in the phosphorylcholine) by human nSMase2. Optimization of assay conditions was accomplished according to the methods of Barbone et al.. Briefly, bovine [N-methyl-^14C]-sphingomyelin (specific activity […], Perkin Elmer) and phosphatidylinositol (Avanti Polar Lipids) were evaporated to dryness under a stream of nitrogen and resuspended at an equimolar concentration of 0.1 mM in water with 0.5% Triton X-100 (Sigma). The solution was vortexed for 30 min and then sonicated for 30 min. Assay conditions were as follows: 50 μl total volume per reaction, consisting of 20 μM SM, reaction buffer (100 mM Tris-HCl pH 7.5, 80 mM MgCl2, 0.1% Triton X-100); 10 μl cell lysate containing recombinant human nSMase2 (0.5–1 μg protein/assay) and 5 μl of compound in reaction buffer containing 10% DMSO. After 1 h incubation at 37°C the reaction was terminated by the addition of 30 μl of water and 175 μl of chloroform/methanol (2:1, v:v), followed by vigorous vortexing. Tubes were centrifuged for 5 min at 10,000 xg at room temperature to separate the organic bottom phase containing labeled SM and the aqueous upper phase containing ^14C-labeled-phosphorylcholine. An aliquot (50 μl) of the upper phase was transferred to a vial with 10 ml of scintillant and counted for 2 min on a Beckman LS-6000IC scintillation counter. Enzyme activity was directly proportional to the disintegrations per min (dpm) resulting from the generation of ^14C-phosphorylcholine."}, "[3]": {"system": "rat primary hippocampal neurons", "test": "Hippocampal neuronal survival (Hoechst 33342)", "format": "cell-based", "description": "All animal procedures were approved by the Johns Hopkins University Animal Care and Use Committee. Primary hippocampal neurons were prepared from day 18 decapitated embryos of Sprague-Dawley rats following previously described methods. Cells were seeded on polyethyleneimine (PEI)-coated slides in 12-well plates and cultured between 14–21 days. […] After 18 h, cells were stained with 50 μg/ml Hoeschst 33342 for 20 min and then fixed with 4% paraformaldehyde for 30 min. The number of living and apoptotic cells was determined by fluorescence microscopy. A minimum of 500 cells were counted per treatment condition. Results were normalized to control untreated cells and were representative of at least two independent experiments conducted in triplicate. Statistical evaluation of the data was done by Student’s t-test."}}, "note": "pIC50: −log10 of the molar value. “And” between values parts separate entries of the source, which are not always exact repeats. Identical values can stand only once. “Also recorded” adds a separate entry of the source."}
{"compound": "COc1cc(O)c(C(=O)O)c(-c2cc(O)c(O)cc2C)c1", "note": "[Altenusin, reference compound]", "values": [{"measurement": "pIC50", "setting": "nSMase", "value": 4.55}, {"measurement": "MOI", "setting": "nSMase", "value": "Non- competitive"}, {"measurement": "modulation of enzymatic activity (Fig 3C raw data)", "setting": "human nSMase2 [1]; 100 µM", "value": "75.4 RFU and 73.8 RFU and 72.1 RFU and 74.7 RFU"}, {"measurement": "inhibition of human nSMase2 activity", "setting": "human nSMase2 [1]; 150 μM GW4869, 100 μM manumycin A, altenusin, zoledronic acid", "value": "possible to inhibit enzyme activity; also recorded: inhibition"}]}
{"compound": "C[S+](C)[O-]", "note": "[DMSO]", "values": [{"measurement": "human nSMase2 activity", "setting": "human nSMase2 [1]; 0.1% DMSO", "value": "2703.2500 RFU and 2871.2510 RFU and 2454.0980 RFU and 2595.8260 RFU"}, {"measurement": "human nSMase2 activity", "setting": "human nSMase2 [1]; 1% DMSO", "value": "2256.2870 RFU and 2299.5150 RFU and 2360.8330 RFU and 2629.8220 RFU"}, {"measurement": "human nSMase2 activity", "setting": "human nSMase2 [1]; 10% DMSO", "value": "1706.1510 RFU and 1610.6720 RFU and 1424.4530 RFU and 1442.3390 RFU"}, {"measurement": "inhibition of human nSMase2 activity", "setting": "human nSMase2 [1]; DMSO up to 1%", "value": "no significant inhibition"}]}
{"compound": "CC1CC2C(C=CC3CC(O)CC4CC(=O)C(=CC32)C(=O)O4)C1=O", "note": "(stereo not drawn) [Macquarimicin A]", "values": [{"measurement": "pIC50", "setting": "nSMase", "value": 3.84}, {"measurement": "MOI", "setting": "nSMase", "value": "Non- competitive"}]}
{"compound": "CC[C@@H](C)/C=C(\\C)C[C@@H](C)C[C@@H](C)/C=C/C=C/C=C/C(=O)N[C@H](CO)C[C@@]1(O)C(=O)C=C[C@@H]2O[C@@H]21", "note": "[Scyphostatin]", "values": [{"measurement": "MOI", "setting": "nSMase", "value": "Competitive"}]}
{"compound": "O=c1[nH]c(-c2ccccc2)c(Cc2c(O)ccc3ccccc23)c(=O)[nH]1", "note": "[compound 2]", "values": [{"measurement": "%Inhibition", "setting": "human nSMase2 [2]; Log [compound] -4.0", "value": "-11.0% and -13.0%"}, {"measurement": "%Inhibition", "setting": "human nSMase2 [2]; Log [compound] -5.0", "value": "-11.0% and -12.0%"}, {"measurement": "%Inhibition", "setting": "human nSMase2 [2]; Log [compound] -6.0", "value": "-2.0% and -3.0%"}, {"measurement": "%Inhibition", "setting": "human nSMase2 [2]; Log [compound] -7.0", "value": "3.0% and 0.0%"}, {"measurement": "%Inhibition", "setting": "human nSMase2 [2]; Log [compound] -9.0", "value": 4.0, "unit": "%"}, {"measurement": "%Inhibition", "setting": "human nSMase2 [2]; Log [compound] -10.0", "value": "-1.0% and -2.0%"}, {"measurement": "human nSMase2 inhibitory activity of analog vs cambinol", "setting": "human nSMase2 [2]", "value": "loss of activity"}, {"measurement": "pIC50", "setting": "human nSMase2 [2]", "value": "< 4.00"}, {"measurement": "neuron survival, Mean (normalized to control untreated cells)", "setting": "[3]; 100 ng/ml IL1β 18 h, 10 µM compound", "value": 79.08}, {"measurement": "neuron survival, Mean (normalized to control untreated cells)", "setting": "[3]; 100 ng/ml IL1β 18 h, 25 µM compound", "value": 81.7}, {"measurement": "neuron survival, Mean (normalized to control untreated cells)", "setting": "[3]; 100 ng/ml TNFα 18 h, 10 µM compound", "value": 76.55}, {"measurement": "neuron survival, Mean (normalized to control untreated cells)", "setting": "[3]; 100 ng/ml TNFα 18 h, 25 µM compound", "value": 81.8}]}
{"compound": "O=c1nc(SCc2ccccc2)[nH]c(-c2ccccc2)c1Cc1c(O)ccc2ccccc12", "note": "[compound 3]", "values": [{"measurement": "human nSMase2 inhibitory activity of analog vs cambinol", "setting": "human nSMase2 [2]", "value": "loss of activity"}, {"measurement": "pIC50", "setting": "human nSMase2 [2]", "value": "< 4.30"}]}
{"compound": "O=c1cc(-c2ccccc2)[nH]c(=S)[nH]1", "note": "[compound 5]", "values": [{"measurement": "pIC50", "setting": "human nSMase2 [2]", "value": "< 4.30"}, {"measurement": "increase in IC50 value", "setting": "human nSMase2 [2]; vs cambinol", "value": 10, "unit": "fold"}]}
